In paper PMC6895048, “4,5-Disubstituted 1,2,3-triazoles: Effective Inhibition of Indoleamine 2,3-Dioxygenase 1 Enzyme Regulates T cell Activity and Mitigates Tumor Growth” (Scientific Reports, 2019):

Experiments:
[1] = biological target: T1, purified human IDO1 enzyme (Homo sapiens, UniProt P14902); test: IDO1 inhibition assay by the spectrometric method (pDMAB); assay type: biochemical; details: for IC50: purified human IDO1, spectrophotometric, mean of three independent assays, read-out: hIDO1 IC50; for fold stronger IDO1 inhibition than MMG-0358: similar experimental conditions
T1 construct: made in house; host or cells: Escherichia coli M15 (pQE30 vector with pREP4 plasmid)
Experimental: Both IDO1 and TDO inhibition assays were performed according to the reported procedures[26]–[30],[50],[51]. […] In the assay system, the minimum and maximum amount of DMSO was 0.02% and 2%, respectively. […] The concentration of the inhibitors was varied from 100 µM to 32 nM by serial dilution technique. Then, the reaction was quenched with 100 µL of 30% (w/v) trichloroacetic acid and was incubated for further 15 minutes at 65 °C. After that, 2% (w/v) pDMAB was used to quantify the amount of kynurenine formation. The absorbance of the reaction mixture was recorded by UV-Vis spectrophotometer at 480 nm.

TDO enzyme = biological target: T2, TDO enzyme (Homo sapiens, UniProt P48775); test: HPLC based TDO inhibition assay; assay type: biochemical
T2 construct: 6xHis (N); made in house; host or cells: Escherichia coli BL21 (DE3) (pET 28a vector)
Experimental: HPLC based IDO1, and TDO inhibition assays were performed according to the earlier reported procedure[19],[27]–[30]. The reaction mixture (250 µL) contained KPB (100 mM, pH 6.5 for IDO1 and 50 mM, pH 8.0 for TDO), sodium ascorbate (20 mM), methylene blue (10 µM), catalase (240 nM, from bovine liver, Sigma), L-Trp (150 µM), purified enzyme (40 nM for IDO1 and 25 nM for TDO), DMSO (0.05%, v/v), Triton-X 100 (0.01%, v/v) and inhibitors. The concentration of the compound was varied from 100 µM to 32 nM by serial dilution. The mixture was incubated at 37 °C for 1 hour in the absence and presence of the synthesized compounds. The reaction was then quenched using 50 µL of 30% (w/v) trichloroacetic acid and incubated at 65 °C for additional 15 minutes to allow complete hydrolysis of N-formylkynurenine to kynurenine. After that, the mixture was centrifuged at 10,000 rpm for 10 minutes, and 100 µL of clear solution was transferred to another tube for HPLC analysis. Then, 20 µL of the reaction mixture was then injected through Ascentis® express C18, 2.7 µm HPLC column with a flow rate of 0.5 mL/minute of the mobile phase containing 50% sodium citrate buffer (40 mM, pH 2.25) and 50% methanol (v/v) with 400 µM SDS. The area under the curve at 365 nm chromatogram corresponding to the kynurenine formation was recorded, and % of inhibition was calculated using standard curve prepared with pure kynurenine (from Sigma) under similar experimental conditions.

IDO1 [2] = biological target: T3, IDO1 (Homo sapiens, UniProt P14902); test: Determination of mode of enzyme inhibition (Lineweaver-Burk); assay type: biochemical; design: made in house; host or cells: Escherichia coli M15 (pQE30 vector with pREP4 plasmid); details: for Ki: Km = 59.76 µM and Kcat = 6.18 sec-1; for Mode of IDO1 inhibition: with respect to L-Trp
Experimental: The mode of IDO1 enzyme inhibition was measured according to the reported spectrophotometric method. The assay was performed by varying both tryptophan concentration from 50 to 150 µM and inhibitor concentration from 32 nM to 4 µM. The amount of formation of N-formylkynurenine was recorded at different time intervals. The mode of enzyme inhibition was determined from the plot of 1/V against 1/[S], where V is the initial rate of the enzymatic reaction and [S] is the L-Trp concentration.

IDO1 [3] = biological target: T3, IDO1; test: Cellular IDO1 activity assay in IFN-γ induced MDA-MB-231 cells; assay type: cell-based; design: induce the expression of the native IDO1 enzyme from its mRNA in the MDA-MB-231 cells; endogenous in cells; host or cells: MDA-MB-231 cells induced with human IFN-γ (50 ng/mL); details: IDO1 expression induced by human IFN-γ (50 ng/mL); mean of three
Experimental: The cellular enzyme activity assay was performed according to the reported procedure with minor modifications[19],[27]–[30],[33],[54]. Briefly, MDA-MB-231 breast cancer cells were selected for this assay because of the presence of IDO1 mRNA in this cell line. First, cells were grown in DMEM/F12 complete media overnight. Then different concentration of human interferon-gamma (IFN-γ) (from 5–1000 ng/mL) was added to it and incubated for 48 hours. This treatment is reported to allow over-expression of IDO1 enzyme in MDA-MB-231 cells. […] Sterile cell-culture grade PBS was used to wash the cells by centrifugation technique. Then, the pellet was lysed in 10 mM HEPES buffer by passing through a sterile syringe. The lysate was used for standard IDO1 assay as mentioned earlier. The relative amount of N-formylkynurenine generated in the presence of the different concentration of IFN-γ was used to optimize the required concentration of IFN-γ for the IDO1 inhibition assay. […] Cells stimulated with IFN-γ alone were used as negative control, while cells stimulated with L-Trp without compound served as positive control. The cells were washed with sterile cell culture grade PBS and lysed in 10 mM HEPES buffer by sterile syringe. The lysate was used for standard IDO1 assay, as mentioned earlier, and the extent of IDO1 enzyme inhibition was determined for the selected compounds.

T2 sequence (P48775 whole entry): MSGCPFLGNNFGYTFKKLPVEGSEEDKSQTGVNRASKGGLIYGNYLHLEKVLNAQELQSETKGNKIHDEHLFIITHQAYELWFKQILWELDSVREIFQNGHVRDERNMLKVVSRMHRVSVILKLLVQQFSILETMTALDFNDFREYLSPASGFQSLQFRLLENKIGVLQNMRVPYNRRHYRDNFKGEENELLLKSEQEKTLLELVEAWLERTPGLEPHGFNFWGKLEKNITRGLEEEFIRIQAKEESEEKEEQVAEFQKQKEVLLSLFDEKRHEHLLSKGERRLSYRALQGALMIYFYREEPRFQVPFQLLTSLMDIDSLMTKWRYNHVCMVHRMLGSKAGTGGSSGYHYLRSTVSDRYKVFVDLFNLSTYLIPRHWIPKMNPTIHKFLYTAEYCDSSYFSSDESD
T3 sequence (P14902 whole entry): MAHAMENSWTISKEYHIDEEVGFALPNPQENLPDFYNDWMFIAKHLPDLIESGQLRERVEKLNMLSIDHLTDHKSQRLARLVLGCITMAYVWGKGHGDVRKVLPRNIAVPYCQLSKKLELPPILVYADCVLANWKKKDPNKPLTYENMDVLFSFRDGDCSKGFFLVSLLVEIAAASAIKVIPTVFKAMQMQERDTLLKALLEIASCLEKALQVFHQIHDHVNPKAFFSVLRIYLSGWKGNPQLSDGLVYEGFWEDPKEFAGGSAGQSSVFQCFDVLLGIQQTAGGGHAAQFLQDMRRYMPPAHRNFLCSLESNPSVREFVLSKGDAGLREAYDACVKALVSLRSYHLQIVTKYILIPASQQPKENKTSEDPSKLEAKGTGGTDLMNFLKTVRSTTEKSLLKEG
T1 sequence (P14902 whole entry): as above

`O=C(N/C(Cc1ccc(O)cc1)=N\O)c1n[nH]nc1-c1ccc(F)c(F)c1` [Compound 4i] was tested. Which IC50 [1] did it give?
The IC50 was 94 ± 4 nM.

And the “% Of inhibition for TDO enzyme” value (TDO enzyme; 32 nM)?
Its value is 15%.

What about the “% Of inhibition for TDO enzyme” value (TDO enzyme; 160 nM) of the same compound?
Its value is 25%.

What about the “% Of inhibition for TDO enzyme” value (TDO enzyme; 800 nM) of the same compound?
The value was 26%.

What about the “% Of inhibition for TDO enzyme” value (TDO enzyme; 4 µM) of the same compound?
The value was 50%.

What about the “% Of inhibition for TDO enzyme” value (TDO enzyme; 20 µM) of the same compound?
Its value is 66%.

What about the “% Of inhibition for TDO enzyme” value (TDO enzyme; 100 µM) of the same compound?
The value was 73%.

What about the Ki (IDO1 [2]) of the same compound?
Its Ki is 258 ± 22 nM.

What about the “Mode of IDO1 inhibition” value (IDO1 [2]) of the same compound?
Its value is “competitive”.

And the EC50 (IDO1 [3])?
The EC50 was 88 ± 10 nM.

With `NS(=O)(=O)NCCNC(=O)c1n[nH]nc1-c1ccc(F)c(F)c1` [Compound 4k] as the compound, how does the inhibition at 4 µM ([1]; 4 μM compound) read?
Its inhibition at 4 µM is 71 to 86%.

What about the inhibition at 100 µM ([1]; 100 μM compound) of the same compound?
Its inhibition at 100 µM is 82 to 93%.

And the IC50 [1]?
Its IC50 is 92 ± 12 nM.

What about the “fold stronger IDO1 inhibition than MMG-0358” value [1] of the same compound?
The value was 3 fold.

And the inhibition at 0.032 µM (TDO enzyme; 32 nM)?
The inhibition at 0.032 µM was 13%.

And the inhibition at 0.16 µM (TDO enzyme; 160 nM)?
Its inhibition at 0.16 µM is 24%.

What about the inhibition at 0.8 µM (TDO enzyme; 800 nM) of the same compound?
Its inhibition at 0.8 µM is 46%.

What about the inhibition at 4 µM (TDO enzyme; 4 µM) of the same compound?
The inhibition at 4 µM was 58%.

And the inhibition at 20 µM (TDO enzyme; 20 µM)?
Its inhibition at 20 µM is 63%.

What about the inhibition at 100 µM (TDO enzyme; 100 µM) of the same compound?
Its inhibition at 100 µM is 68%.

And the Ki (IDO1 [2])?
Its Ki is 98 ± 11 nM.

And the “Mode of IDO1 inhibition” value (IDO1 [2])?
The value was “competitive”.

And the EC50 (IDO1 [3])?
Its EC50 is 77 ± 5 nM.

With `NC(=O)c1n[nH]nc1-c1ccc(F)c(F)c1` [Compound 3i] as the compound, how does the IC50 [1] read?
The IC50 was 111 ± 5 nM.

What about the “fold stronger IDO1 inhibition than MMG-0358” value [1] of the same compound?
The value was 3 fold.

And the “% Of inhibition for TDO enzyme” value (TDO enzyme; 32 nM)?
Its value is 10%.

What about the “% Of inhibition for TDO enzyme” value (TDO enzyme; 160 nM) of the same compound?
Its value is 18%.

And the “% Of inhibition for TDO enzyme” value (TDO enzyme; 800 nM)?
Its value is 21%.

And the “% Of inhibition for TDO enzyme” value (TDO enzyme; 4 µM)?
Its value is 18%.

And the “% Of inhibition for TDO enzyme” value (TDO enzyme; 20 µM)?
The value was 37%.

And the “% Of inhibition for TDO enzyme” value (TDO enzyme; 100 µM)?
Its value is 52%.

What about the Ki (IDO1 [2]) of the same compound?
The Ki was 160 ± 15 nM.

What about the “Mode of IDO1 inhibition” value (IDO1 [2]) of the same compound?
The value was “competitive”.

And the EC50 (IDO1 [3])?
The EC50 was 74 ± 17 nM.

`CCOC(=O)c1n[nH]nc1-c1ccc(F)c(F)c1` [Compound 2i] was tested. Which IC50 [1] did it give?
Its IC50 is 545 ± 29 nM.

And the “% Of inhibition for TDO enzyme” value (TDO enzyme; 32 nM)?
Its value is 34%.

And the “% Of inhibition for TDO enzyme” value (TDO enzyme; 160 nM)?
The value was 47%.

What about the “% Of inhibition for TDO enzyme” value (TDO enzyme; 800 nM) of the same compound?
The value was 49%.

What about the “% Of inhibition for TDO enzyme” value (TDO enzyme; 4 µM) of the same compound?
The value was 65%.

And the “% Of inhibition for TDO enzyme” value (TDO enzyme; 20 µM)?
Its value is 63%.

And the “% Of inhibition for TDO enzyme” value (TDO enzyme; 100 µM)?
Its value is 83%.

And the Ki (IDO1 [2])?
The Ki was 241 ± 38 nM.

What about the “Mode of IDO1 inhibition” value (IDO1 [2]) of the same compound?
Its value is “competitive”.

And the EC50 (IDO1 [3])?
The EC50 was 162 ± 15 nM.
